Results on ten molecules are retold here after the supplement of paper PMC8967900.

Among the test systems are CCRF-CEM; HPB-ALL; NALL-1.
Common to all, as to test: selective drug sensitivity score (sDSS, relative to normal bone marrow) (sDSS (score)); higher = more potent and effective on the cell line relative to normal bone marrow cells
Settings in all cases: 72 h
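Note: ALL cell lines in 384-well plates, five doses spanning 10,000-fold, each plate scaled between vehicle and 100 µmol/L benzalkonium chloride controls, sDSS an adapted area-under-curve metric.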

With `CN1CCN(C2CCC(n3cc(-c4ccc(Oc5ccccc5)cc4)c4c(N)ncnc43)CC2)CC1` (stereo not given) (top concentration 10000 nM), the entries for the “selective drug sensitivity score” value in the experiment with CCRF-CEM, in the experiment with HPB-ALL and with NALL-1 were 1.12, 0.32 and 5.52, respectively.
The corresponding values for `CC[C@H](CC#N)OC(=O)N[C@@H](C)c1cccc(NC(=O)Nc2ccc(-c3cnco3)c(OC)c2)c1` [AVN944] (top concentration 10000 nM) are 12.1, 5.64 and 2.64.
Regarding `COc1ccc(-c2ccc3c(N4CCOC[C@@H]4C)nc(N4CCOC[C@@H]4C)nc3n2)cc1CO` [AZD8055] (top concentration 10000 nM), the “selective drug sensitivity score” value in the experiment on CCRF-CEM was 13.4; with HPB-ALL, 0.18; with NALL-1 it was -3.22.
The corresponding values for `COc1cccc2c1C(=O)c1c(O)c3c(c(O)c1C2=O)C[C@@](O)(C(=O)CO)C[C@@H]3O[C@H]1C[C@H](N)[C@@H](O)[C@H](C)O1` [Epirubicin] (top concentration 1000 nM) are 8.02, 0.12 and -5.28.
Consider `CO[C@H]1C[C@@H]2CC[C@@H](C)[C@@](O)(O2)C(=O)C(=O)N2CCCC[C@H]2C(=O)O[C@H]([C@H](C)C[C@@H]2CC[C@@H](OCCO)[C@H](OC)C2)CC(=O)[C@H](C)/C=C(\C)[C@@H](O)[C@@H](OC)C(=O)[C@H](C)C[C@H](C)/C=C/C=C/C=C/1C` [Everolimus] (top concentration 100 nM), for which the figures for the “selective drug sensitivity score” value in the experiment with CCRF-CEM, with HPB-ALL and in the experiment on NALL-1 were 5.9, -5.3 and -5.3, respectively.
Take `CON(C)C(=O)N1N=C(c2cc(F)ccc2F)S[C@@]1(CCCN)c1ccccc1` [Filanesib] (top concentration 1000 nM): the “selective drug sensitivity score” value worked out at 16.2 with CCRF-CEM, 20.3 with HPB-ALL and 10.3 with NALL-1.
The corresponding values for `CN(Cc1cnc2nc(N)nc(N)c2n1)c1ccc(C(=O)N[C@@H](CCC(=O)O)C(=O)O)cc1` [Methotrexate] (top concentration 5000 nM) are 13, 5.28 and 12.7.
The corresponding values for `CC[C@@]1(O)C(=O)OCc2c1cc1n(c2=O)Cc2cc3c(CN(C)C)c(O)ccc3nc2-1` [Topotecan] (top concentration 10000 nM) are 21.2, 11.2 and 20.4.
The corresponding values for `O=c1[nH]c(=O)n([C@H]2C[C@H](O)[C@@H](CO)O2)cc1C(F)(F)F` [Trifluridine] (top concentration 10000 nM) are 14.2, 4.66 and 9.76.
Regarding `Cc1sc2c(c1C)C(c1ccc(Cl)cc1)=N[C@@H](CC(=O)NCCCCNC(=O)COc1cccc3c1C(=O)N(C1CCC(=O)NC1=O)C3=O)c1nnc(C)n1-2` (stereo not given in full) [dBET1] (top concentration 10000 nM), the “selective drug sensitivity score” value with CCRF-CEM was -3.68; with HPB-ALL, -12.7; with NALL-1, -11.8.
